These results are taken from patent US12410160B2 (Gilead Sciences, Inc., priority 2021, dated 2025).

Like-named read-outs stand apart in the source and are kept apart here.

Data set [1] has as its target T1, human OATP1B1 (Homo sapiens (Human), UniProt Q9Y6L6). Kind of data set: In Vitro Inhibition Assessment with Human OATP1B1 Transporter. It counts as in vitro ADME. The conditions noted are these: HEK293-OATP1B1 cells, probe substrate pravastatin. Put shortly:
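HEK293-OATP1B1 and mock cells were preincubated 15 min with compound in HBSS. They were then coincubated 5 min with compound plus pravastatin (0.4% DMSO final), and intracellular substrate was quantified by LC-MS/MS. Mock-corrected uptake relative to solvent gave percentage activity, from which IC50 was fitted.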

In data set [2] the target is T1, human OATP1B1. Put plainly: In Vitro Substrate Assessment with Human OATP1B1 Transporter. As to conditions: HEK293-OATP1B1 vs mock cells; substrate if uptake ≥2-fold of mock and decreased by ≥30% with known OATP inhibitor. It counts as in vitro ADME. An excerpt:
In Vitro Substrate Assessment with Human OATP1B1 and OATP1B3 Transporters
The purpose of this assay was to assess whether test articles (TAs), were substrates for the hepatic uptake transporters organic anion transporting polypeptide (OATP) 1B1 (SLCO1B1) and 1B3 (SLCO1B3) using non-transfected (Mock) and transfected human embryonic kidney (HEK293) cells. […] On assay day, media were removed from the assay plates and cells were washed with Hanks' Balanced Salt Solution (HBSS Buffer) (Corning, Cat. #21-023-CV). Cells were preincubated with HBSS buffer with or without known OATP inhibitors for 30 minutes. […] The incubation period was 2 minutes. Cells were then washed three times with ice cold HBSS buffer and then were immediately extracted with methanol:water (70:30 v:v) containing internal standard labetolol (30 nM). The supernatants were evaporated to dryness on injection plates and reconstituted in 80% water containing 20% acetonitrile and 0.1% formic acid for analysis by liquid chromatography with tandem mass spectrometry (LC-MS-MS).
The rate of uptake into cells was determined by the following formula: Rate of uptake=(A*B)/(C*D)
• A: concentration of compound in cell lysate • B: volume of sample • C: Incubation time • D: millions of cells in sample
A TA was considered a substrate for OATP transporter if: (1) the rate of uptake in the transporter transfected cells was ≥2-fold of the rate of uptake in the mock cells; and (2) the rate of uptake in the transporter transfected cells was decreased by ≥30% in the presence of a known OATP inhibitor.

The nature of data set [3]: pKa analysis by capillary electrophoresis (pKa PRO Analyzer, co-solvent method). In kind it is physicochemical. As to conditions: methanol/aqueous co-solvent buffers, co-solvent method (60% to 30% methanol buffers). Put shortly:
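Capillary electrophoresis by the co-solvent method, with 100 μM compound and 1% DMSO in 2 mM HCl or NaOH at 60% methanol.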

Data set [4] deals with KHK-C expressed in NRK-52E cells (Homo sapiens (Human), UniProt P50053). Put plainly: KHK-C Cell-based Assay (EC50), NRK CTG, fructose-mediated ATP-depletion.
The target in data set [5] is human KHK-C (Homo sapiens (Human), UniProt P50053). Put plainly: KHK Biochemical Assay (IC50), ADP-Glo, KHK-C. As to conditions: average of at least two separate assays. The method, boiled down: (§1)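 Luminescent ADP-Glo read-out of ADP made by His-tagged KHK (BL21 (DE3) expression, Ni-NTA). Enzyme and compound sat together 30 min before ATP/fructose addition, then reacted 4 h at RT in Hepes pH 7.4 buffer with KCl, MgCl2, Triton-X. Quench 1 h, detection 1 h.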

Data set [6] has as its system HepG2 cells. Put plainly: F1P Cell-Based Assay (EC50), 13C6-fructose-1-phosphate in HepG2 cells (cell culture medium or 50% human plasma). The conditions noted are these: Homo sapiens.
Data set [7] concerns the target human KHK-A (Homo sapiens (Human), UniProt P50053). Put plainly: KHK Biochemical Assay (IC50), ADP-Glo, KHK-A. As to conditions: average of at least two separate assays. Put shortly: as §1
For orientation: ADP-Glo first removes unused ATP, then detects ADP through luciferase.

Setting [8] is: pH range 1.7-11.2, read-out: 1st pKa.
Setting [9] is: HepG2, HepG2 cells, 50% human plasma, read-out: F1P 50% HP EC50.
Where [10] appears, read: HepG2, read-out: F1P 10% FBS EC50, HepG2 cells, cell culture medium (10% FBS).

What is called IC50 is the point on the concentration scale where inhibition reaches its midpoint. Lower therefore signals inhibition by little substance. The pKa is the negative logarithm of the acid dissociation constant. As usually defined, the EC50 is the concentration giving half of the maximal effect.

T1 sequence (Q9Y6L6 whole entry): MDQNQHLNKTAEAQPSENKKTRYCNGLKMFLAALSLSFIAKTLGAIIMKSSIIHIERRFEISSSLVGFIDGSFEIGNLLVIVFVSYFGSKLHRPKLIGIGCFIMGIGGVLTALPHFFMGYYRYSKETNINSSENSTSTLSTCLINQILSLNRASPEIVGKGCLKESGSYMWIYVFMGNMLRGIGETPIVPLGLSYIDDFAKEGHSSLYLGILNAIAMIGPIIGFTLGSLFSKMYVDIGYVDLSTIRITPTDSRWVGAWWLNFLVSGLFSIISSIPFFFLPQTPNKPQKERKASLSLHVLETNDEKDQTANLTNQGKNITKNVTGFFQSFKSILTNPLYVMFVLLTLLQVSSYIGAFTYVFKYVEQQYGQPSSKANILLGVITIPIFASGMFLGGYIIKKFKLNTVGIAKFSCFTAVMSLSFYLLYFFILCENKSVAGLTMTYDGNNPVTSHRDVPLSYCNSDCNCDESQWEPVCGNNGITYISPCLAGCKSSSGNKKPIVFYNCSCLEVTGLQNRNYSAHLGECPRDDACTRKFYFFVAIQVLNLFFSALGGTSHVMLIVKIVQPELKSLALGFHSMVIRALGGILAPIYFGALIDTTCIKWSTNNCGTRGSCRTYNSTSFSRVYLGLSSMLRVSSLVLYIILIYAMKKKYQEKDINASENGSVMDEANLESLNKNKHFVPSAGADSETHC
Chain of KHK-C expressed in NRK-52E cells (P50053 whole entry): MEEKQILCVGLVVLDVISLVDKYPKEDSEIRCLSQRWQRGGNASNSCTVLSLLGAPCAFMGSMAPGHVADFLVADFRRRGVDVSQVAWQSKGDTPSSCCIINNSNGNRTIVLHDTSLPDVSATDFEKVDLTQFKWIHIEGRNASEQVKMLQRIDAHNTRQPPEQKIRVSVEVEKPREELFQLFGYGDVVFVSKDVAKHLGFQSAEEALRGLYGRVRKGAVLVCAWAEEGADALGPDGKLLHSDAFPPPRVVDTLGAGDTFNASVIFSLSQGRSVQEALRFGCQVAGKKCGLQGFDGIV
Chain of human KHK-C (P50053 whole entry): as above
Chain of human KHK-A (P50053 other isoform, or with tags, fused parts or gaps): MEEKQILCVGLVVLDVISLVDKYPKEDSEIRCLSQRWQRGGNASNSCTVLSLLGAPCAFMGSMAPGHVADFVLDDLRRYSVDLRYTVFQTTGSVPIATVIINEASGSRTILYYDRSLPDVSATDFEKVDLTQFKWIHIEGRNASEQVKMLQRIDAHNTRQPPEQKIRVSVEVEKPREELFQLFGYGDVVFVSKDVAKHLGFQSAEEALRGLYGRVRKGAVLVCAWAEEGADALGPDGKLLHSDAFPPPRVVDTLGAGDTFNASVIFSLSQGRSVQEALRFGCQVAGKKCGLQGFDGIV

Consider `C[C@H]1CCN1c1nc(N2C[C@@H]3[C@@H](CC(=O)O)[C@@H]3C2)c2c(n1)C(F)(F)CC2` [Reference Compound 5, reference compound], for which it took 720 nM to reach half-maximal inhibition in data set [1] (IC50). Also, in data set [2], the “OATP1B1 Substrate” value is given as “YES”.
Take `C[C@H]1[C@H](O)CN1c1nc2c(c(-c3cccc(S(N)(=O)=O)c3)n1)CCC2` [Example 209, 3-[2-[(2S,3R)-3-hydroxy-2-methyl-azetidin-1-yl]-6,7-dihydro-5H-cyclopenta[d]pyrimidin-4-yl]benzenesulfonamide]: the pKa is 3.54 in data set [3] (setting [8]) and 9.45 in data set [3] (pH range 1.7-11.2, read-out: 2nd pKa). The same compound displayed an IC50 in data set [1] of 5570 nM. Moreover, the “OATP1B1 Substrate” value in data set [2] is reported as “YES”. This compound showed an EC50 in data set [4] of 249 nM.
In the case of `C[C@H]1[C@H](O)CN1c1nc(-c2ccc3c(c2)OCCNC3=O)c2c(n1)C(F)(F)CC2` [Example 166, 8-(7,7-difluoro-2-((2S,3R)-3-hydroxy-2-methylazetidin-1-yl)-6,7-dihydro-5H-cyclopenta[d]pyrimidin-4-yl)-3,4-dihydrobenzo[f][1,4]oxazepin-5(2H)-one], the 50% inhibitory concentration (IC50) in data set [5] (ADP-Glo) amounted to 5 nM; in data set [1], 1740 nM. For the same compound, the results for the EC50 in data set [6] (setting [9]), in data set [6] (setting [10]) and in data set [4] were 47.3 nM, 36.7 nM and 39.7 nM, respectively. Also, in data set [2], the “OATP1B1 Substrate” value is recorded as “YES”.
`C[C@H]1CCN1c1nc(N2C[C@@H]3[C@@H](CC(=O)O)[C@@H]3C2)cc(C(F)(F)F)n1` [Reference Compound 1, reference compound] gave an IC50 in data set [1] of 1190 nM. For the same compound, in data set [2], the “OATP1B1 Substrate” value is recorded as “YES”.
For `NC1(c2ccc(-c3nc(N4CC[C@@H]4C(F)(F)F)nc4c3CCC4(F)F)cc2)COC1` [Example 696, 3-[4-[7,7-difluoro-2-[(2R)-2-(trifluoromethyl)azetidin-1-yl]-5,6-dihydrocyclopenta[d]pyrimidin-4-yl]phenyl]oxetan-3-amine], the pKa in data set [3] (setting [8]) worked out at 6.3. The figures for the IC50 in data set [5], in data set [7] and in data set [1] were 0.5 nM, 1 nM and 5410 nM, respectively. Besides, the EC50 in data set [6] (setting [9]) came out at 6.8 nM; in data set [6] (setting [10]), 1.7 nM; in data set [4], 5.7 nM.
In the case of `C[C@H]1CCN1c1nc(N2C[C@@H]3[C@@H](CC(=O)O)[C@@H]3C2)c2c(n1)C(F)(F)CCC2` [Reference Compound 6, reference compound], the midpoint of inhibition in data set [1], the IC50, lay at 960 nM. In addition, the “OATP1B1 Substrate” value in data set [2] was “YES”.
On the same counts, the results for `C[C@H]1CCN1c1nc(N2CC[C@H](CC(=O)O)C2)cc(C(F)(F)F)c1C#N` [Reference Compound 2, 2-((R)-1-(5-cyano-6-((S)-2-methylazetidin-1-yl)-4-(trifluoromethyl)pyridin-2-yl)pyrrolidin-3-yl)acetic acid, reference compound] are 267 nM and “YES”.
